Numbers after ± are expanded uncertainties.
Settings: Liquid

## CCC(O)CC [3-pentanol]
303.15 K, 100 kPa
  speed of sound: 1234.7 ± 3.4 m/s
303.15 K, 10000 kPa
  speed of sound: 1294 ± 3.6 m/s
303.15 K, 20000 kPa
  speed of sound: 1348.2 ± 3.7 m/s
303.15 K, 30000 kPa
  speed of sound: 1397.7 ± 3.8 m/s
303.15 K, 40000 kPa
  speed of sound: 1443.6 ± 3.9 m/s
303.15 K, 50000 kPa
  speed of sound: 1486.9 ± 4 m/s
303.15 K, 60000 kPa
  speed of sound: 1526 ± 4.1 m/s
303.15 K, 70000 kPa
  speed of sound: 1564.7 ± 4.2 m/s
303.15 K, 80000 kPa
  speed of sound: 1600.5 ± 4.3 m/s
303.15 K, 90000 kPa
  speed of sound: 1636.4 ± 4.4 m/s
303.15 K, 100000 kPa
  speed of sound: 1668.2 ± 4.5 m/s
313.15 K, 100 kPa
  speed of sound: 1194.7 ± 3.3 m/s
313.15 K, 10000 kPa
  speed of sound: 1257 ± 3.5 m/s
313.15 K, 20000 kPa
  speed of sound: 1313 ± 3.6 m/s
313.15 K, 30000 kPa
  speed of sound: 1364.7 ± 3.7 m/s
313.15 K, 40000 kPa
  speed of sound: 1411.9 ± 3.8 m/s
313.15 K, 50000 kPa
  speed of sound: 1456 ± 4 m/s
313.15 K, 60000 kPa
  speed of sound: 1498.1 ± 4.1 m/s
313.15 K, 70000 kPa
  speed of sound: 1537.4 ± 4.2 m/s
313.15 K, 80000 kPa
  speed of sound: 1574.5 ± 4.2 m/s
313.15 K, 90000 kPa
  speed of sound: 1610.2 ± 4.3 m/s
313.15 K, 100000 kPa
  speed of sound: 1644.1 ± 4.4 m/s
323.15 K, 100 kPa
  speed of sound: 1155.2 ± 3.2 m/s
323.15 K, 10000 kPa
  speed of sound: 1219.2 ± 3.4 m/s
323.15 K, 20000 kPa
  speed of sound: 1277.9 ± 3.5 m/s
323.15 K, 30000 kPa
  speed of sound: 1331 ± 3.7 m/s
323.15 K, 40000 kPa
  speed of sound: 1380.2 ± 3.8 m/s
323.15 K, 50000 kPa
  speed of sound: 1425.8 ± 3.9 m/s
323.15 K, 60000 kPa
  speed of sound: 1468.5 ± 4 m/s
323.15 K, 70000 kPa
  speed of sound: 1508.9 ± 4.1 m/s
323.15 K, 80000 kPa
  speed of sound: 1547.2 ± 4.2 m/s
323.15 K, 90000 kPa
  speed of sound: 1583.6 ± 4.3 m/s
323.15 K, 100000 kPa
  speed of sound: 1618.6 ± 4.3 m/s
333.15 K, 100 kPa
  speed of sound: 1115.9 ± 3.1 m/s
333.15 K, 10000 kPa
  speed of sound: 1182.2 ± 3.3 m/s
333.15 K, 20000 kPa
  speed of sound: 1243.1 ± 3.4 m/s
333.15 K, 30000 kPa
  speed of sound: 1298.2 ± 3.6 m/s
333.15 K, 40000 kPa
  speed of sound: 1348.6 ± 3.7 m/s
333.15 K, 50000 kPa
  speed of sound: 1395.9 ± 3.8 m/s
333.15 K, 60000 kPa
  speed of sound: 1439.4 ± 3.9 m/s
333.15 K, 70000 kPa
  speed of sound: 1480.7 ± 4 m/s
333.15 K, 80000 kPa
  speed of sound: 1519.8 ± 4.1 m/s
333.15 K, 90000 kPa
  speed of sound: 1556.9 ± 4.2 m/s
333.15 K, 100000 kPa
  speed of sound: 1592.2 ± 4.3 m/s
343.15 K, 100 kPa
  speed of sound: 1076.8 ± 3 m/s
343.15 K, 10000 kPa
  speed of sound: 1146.9 ± 3.2 m/s
343.15 K, 20000 kPa
  speed of sound: 1209.7 ± 3.4 m/s
343.15 K, 30000 kPa
  speed of sound: 1266.6 ± 3.5 m/s
343.15 K, 40000 kPa
  speed of sound: 1318.2 ± 3.6 m/s
343.15 K, 50000 kPa
  speed of sound: 1366.4 ± 3.7 m/s
343.15 K, 60000 kPa
  speed of sound: 1411.1 ± 3.8 m/s
343.15 K, 70000 kPa
  speed of sound: 1453.1 ± 3.9 m/s
343.15 K, 80000 kPa
  speed of sound: 1492.9 ± 4 m/s
343.15 K, 90000 kPa
  speed of sound: 1530.7 ± 4.1 m/s
343.15 K, 100000 kPa
  speed of sound: 1566.6 ± 4.2 m/s
353.15 K, 100 kPa
  speed of sound: 1036.7 ± 3 m/s
353.15 K, 10000 kPa
  speed of sound: 1110.4 ± 3.1 m/s
353.15 K, 20000 kPa
  speed of sound: 1176.2 ± 3.3 m/s
353.15 K, 30000 kPa
  speed of sound: 1234.1 ± 3.4 m/s
353.15 K, 40000 kPa
  speed of sound: 1287.8 ± 3.6 m/s
353.15 K, 50000 kPa
  speed of sound: 1337.3 ± 3.7 m/s
353.15 K, 60000 kPa
  speed of sound: 1383.1 ± 3.8 m/s
353.15 K, 70000 kPa
  speed of sound: 1425.8 ± 3.9 m/s
353.15 K, 80000 kPa
  speed of sound: 1466.6 ± 4 m/s
353.15 K, 90000 kPa
  speed of sound: 1505 ± 4.1 m/s
353.15 K, 100000 kPa
  speed of sound: 1541.4 ± 4.2 m/s
363.15 K, 100 kPa
  speed of sound: 997.3 ± 2.9 m/s
363.15 K, 10000 kPa
  speed of sound: 1075.3 ± 3 m/s
363.15 K, 20000 kPa
  speed of sound: 1143.2 ± 3.2 m/s
363.15 K, 30000 kPa
  speed of sound: 1203.5 ± 3.3 m/s
363.15 K, 40000 kPa
  speed of sound: 1258.2 ± 3.5 m/s
363.15 K, 50000 kPa
  speed of sound: 1308.3 ± 3.6 m/s
363.15 K, 60000 kPa
  speed of sound: 1355.1 ± 3.7 m/s
363.15 K, 70000 kPa
  speed of sound: 1399.6 ± 3.8 m/s
363.15 K, 80000 kPa
  speed of sound: 1440.8 ± 3.9 m/s
363.15 K, 90000 kPa
  speed of sound: 1479.7 ± 4 m/s
363.15 K, 100000 kPa
  speed of sound: 1516.9 ± 4.1 m/s
373.15 K, 100 kPa
  speed of sound: 957.2 ± 2.8 m/s
373.15 K, 10000 kPa
  speed of sound: 1038.9 ± 3 m/s
373.15 K, 20000 kPa
  speed of sound: 1109.6 ± 3.1 m/s
373.15 K, 30000 kPa
  speed of sound: 1171.5 ± 3.3 m/s
373.15 K, 40000 kPa
  speed of sound: 1228.3 ± 3.4 m/s
373.15 K, 50000 kPa
  speed of sound: 1280.1 ± 3.5 m/s
373.15 K, 60000 kPa
  speed of sound: 1328.2 ± 3.6 m/s
373.15 K, 70000 kPa
  speed of sound: 1373.1 ± 3.8 m/s
373.15 K, 80000 kPa
  speed of sound: 1415 ± 3.9 m/s
373.15 K, 90000 kPa
  speed of sound: 1454.6 ± 4 m/s
373.15 K, 100000 kPa
  speed of sound: 1492.5 ± 4 m/s

From the NIST ThermoML archive (doi:10.1016/j.jct.2005.10.002)
